In the supplement of paper PMC10307832:

Legend:
Experiment in all cases: relative viability (nuclei count vs DMSO), 5 days (fraction); higher = more cells survive
[1] = compound: CC[C@H](C)N1C=C(C2=C(C=C(C=C21)C3=CN=C(C=C3)N4CCNCC4)C(=O)NCC5=C(C=C(NC5=O)C)C)C [GSK126] + Cc1cc(Nc2cc(N3CCN(C)CC3)nc(Sc3ccc(NC(=O)C4CC4)cc3)n2)n[nH]1 [Tozasertib] (partner 0.1 µM)
How it was run: (§1)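 Lung cancer cell lines in 1536-well plates were dosed by pin tool the day after seeding, either with one drug alone or with a fixed anchor-drug dose plus five library-drug doses (not always all listed) in √10 steps. After 5 days, cells were fixed and their nuclei stained in one step (final 0.05% Triton X-100, 1% formaldehyde, 1 ug/ml Hoechst), then counted on 4× images. Relative viability is the nuclei count in treated wells divided by that in vehicle wells. Values are medians of duplicate plates.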

[2] = compound: CC[C@H](C)N1C=C(C2=C(C=C(C=C21)C3=CN=C(C=C3)N4CCNCC4)C(=O)NCC5=C(C=C(NC5=O)C)C)C [GSK126] + CC(C)C[C@H](NC(=O)[C@H](Cc1ccccc1)NC(=O)c1cnccn1)B(O)O [Bortezomib] (partner 0.002 µM)
How it was run: as §1

[3] = compound: NS(=O)(=O)OC[C@@H]1C[C@@H](n2ccc3c(N[C@H]4CCc5ccccc54)ncnc32)C[C@@H]1O [MLN4924] + CC1(C)CCC(c2ccc(Cl)cc2)=C(CN2CCN(c3ccc(C(=O)NS(=O)(=O)c4ccc(N[C@H](CCN5CCOCC5)CSc5ccccc5)c(S(=O)(=O)C(F)(F)F)c4)cc3)CC2)C1 [Navitoclax] (partner 0.5 µM)
How it was run: as §1

[4] = compound: NS(=O)(=O)OC[C@@H]1C[C@@H](n2ccc3c(N[C@H]4CCc5ccccc54)ncnc32)C[C@@H]1O [MLN4924] + Nc1nc2[nH]cc(CCc3ccc(C(=O)N[C@@H](CCC(=O)O)C(=O)O)cc3)c2c(=O)[nH]1 [Pemetrexed] (partner 0.2 µM)
How it was run: as §1

Cell Line: H3255
- relative viability ([1]; first compound 0.08 µM): 0.704
- relative viability ([1]; first compound 0.253 µM): 0.65
- relative viability ([1]; first compound 0.8 µM): 0.74
- relative viability ([1]; first compound 2.53 µM): 0.614
- relative viability ([1]; first compound 8 µM): 0.466
- relative viability ([2]; first compound 0.08 µM): 0.729
- relative viability ([2]; first compound 0.253 µM): 0.731
- relative viability ([2]; first compound 0.8 µM): 0.683
- relative viability ([2]; first compound 2.53 µM): 0.802
- relative viability ([2]; first compound 8 µM): 0.879
- relative viability ([3]; first compound 0.04 µM): 0.592
- relative viability ([3]; first compound 0.1265 µM): 0.434
- relative viability ([3]; first compound 0.4 µM): 0.226
- relative viability ([3]; first compound 1.265 µM): 0.131
- relative viability ([3]; first compound 4 µM): 0.175
- relative viability ([4]; first compound 0.04 µM): 0.603
- relative viability ([4]; first compound 0.1265 µM): 0.577
- relative viability ([4]; first compound 0.4 µM): 0.396
- relative viability ([4]; first compound 1.265 µM): 0.263
- relative viability ([4]; first compound 4 µM): 0.308

Cell Line: NCI-H1666
- relative viability ([1]; first compound 0.08 µM): 0.667
- relative viability ([1]; first compound 0.253 µM): 0.624
- relative viability ([1]; first compound 0.8 µM): 0.557
- relative viability ([1]; first compound 2.53 µM): 0.52
- relative viability ([1]; first compound 8 µM): 0.49
- relative viability ([2]; first compound 0.08 µM): 0.826
- relative viability ([2]; first compound 0.253 µM): 0.962
- relative viability ([2]; first compound 0.8 µM): 0.814
- relative viability ([2]; first compound 2.53 µM): 0.808
- relative viability ([2]; first compound 8 µM): 1.01
- relative viability ([3]; first compound 0.04 µM): 0.858
- relative viability ([3]; first compound 0.1265 µM): 0.503
- relative viability ([3]; first compound 0.4 µM): 0.328
- relative viability ([3]; first compound 1.265 µM): 0.213
- relative viability ([3]; first compound 4 µM): 0.224
- relative viability ([4]; first compound 0.04 µM): 0.734
- relative viability ([4]; first compound 0.1265 µM): 0.742
- relative viability ([4]; first compound 0.4 µM): 0.645
- relative viability ([4]; first compound 1.265 µM): 0.409
- relative viability ([4]; first compound 4 µM): 0.488

Cell Line: NCI-H2228
- relative viability ([1]; first compound 0.08 µM): 0.254
- relative viability ([1]; first compound 0.253 µM): 0.225
- relative viability ([1]; first compound 0.8 µM): 0.273
- relative viability ([1]; first compound 2.53 µM): 0.172
- relative viability ([1]; first compound 8 µM): 0.15
- relative viability ([2]; first compound 0.08 µM): 1.01
- relative viability ([2]; first compound 0.253 µM): 0.787
- relative viability ([2]; first compound 0.8 µM): 0.763
- relative viability ([2]; first compound 2.53 µM): 1.08
- relative viability ([2]; first compound 8 µM): 1.05
- relative viability ([3]; first compound 0.1265 µM): 1.03
- relative viability ([3]; first compound 0.4 µM): 0.221
- relative viability ([3]; first compound 1.265 µM): 0.135
- relative viability ([3]; first compound 4 µM): 0.155
- relative viability ([4]; first compound 0.04 µM): 0.377
- relative viability ([4]; first compound 0.1265 µM): 0.32
- relative viability ([4]; first compound 0.4 µM): 0.213
- relative viability ([4]; first compound 1.265 µM): 0.0983
- relative viability ([4]; first compound 4 µM): 0.119

Cell Line: HCC-78
- relative viability ([1]; first compound 0.08 µM): 0.527
- relative viability ([1]; first compound 0.253 µM): 0.54
- relative viability ([1]; first compound 0.8 µM): 0.401
- relative viability ([1]; first compound 2.53 µM): 0.386
- relative viability ([1]; first compound 8 µM): 0.405
- relative viability ([2]; first compound 0.08 µM): 0.464
- relative viability ([2]; first compound 0.253 µM): 0.466
- relative viability ([2]; first compound 0.8 µM): 0.374
- relative viability ([2]; first compound 2.53 µM): 0.562
- relative viability ([2]; first compound 8 µM): 0.389
- relative viability ([3]; first compound 0.04 µM): 0.91
- relative viability ([3]; first compound 0.1265 µM): 0.537
- relative viability ([3]; first compound 0.4 µM): 0.767
- relative viability ([3]; first compound 1.265 µM): 0.158
- relative viability ([3]; first compound 4 µM): 0.117
- relative viability ([4]; first compound 0.04 µM): 0.882
- relative viability ([4]; first compound 0.1265 µM): 0.899
- relative viability ([4]; first compound 0.4 µM): 0.918
- relative viability ([4]; first compound 1.265 µM): 0.881
- relative viability ([4]; first compound 4 µM): 0.892
